US12108719B2, “Methods for creating doubled haploid plants” (Monsanto Technology LLC, priority 2015, dated 2024)

How the values were obtained:
[1] = system: DH0 seedlings of Germplasm A; assay: Doubling efficiency of DH0 plants after co-dominant ear induction treatment (Example 2); type: in vivo, maize
From the text: An F1 hybrid-derived haploid induction population derived from female inbred maize plant Germplasm A was germinated in soil and tended in standard greenhouse maize growing conditions for approximately seven days. Seedlings were then subjected to a bulk colchicine-based chromosome doubling treatment as described above. Following treatment, seedlings were transplanted into pots and tended in a greenhouse at standard greenhouse maize growing conditions to recover.
Twenty-nine days after the colchicine doubling treatment, 77 of the DH0 seedlings were subjected to a co-dominant ear induction treatment comprising the addition of 60 mL of 2.5% PBZ (v/v) in water, which was poured into the soil surrounding the roots of each plant. The seedlings were then tended in standard greenhouse maize growing conditions until they flowered, at which time each plant that produced pollen was self-pollinated. After approximately 3-4 weeks, ears were harvested and the kernels (DH1 seeds) that formed on the treated DH0 plants were counted to determine doubling efficiencies.
Doubling efficiencies (DE) were calculated under four different constraints, depending on the minimum number of kernels an ear had to produce in order to even be included in the calculation. DE04 represents the portion of all the doubled DH0 plants that produced a total of at least four seeds when all ears were considered. DE20 represents the portion of all the doubled DH0 plants that produced a total of at least 20 kernels when all ears were considered. Similarly, DE30 represents the portion of doubled DH0 plants that produced a total of at least 30 kernels when all ears were considered, and DE50 represents the portion of doubled DH0 plants that produced a total of at least 50 kernels when all ears were considered.
Furthermore, the above doubling efficiencies were calculated once by considering only the kernels that formed on the primary ear of each plant (Ear1), once by considering only the kernels that formed on the primary and secondary ear of each plant (Ear2), once by considering only the kernels that formed on the primary, secondary, and tertiary ear of each plant (Ear3), and finally by considering all the kernels that formed on all the ears of each plant (Earall).

[2] = system: Diploid maize plants of a common inbred line; assay: Tiller induction in diploids (Example 6); type: in vivo
Experimental: Diploid maize plants of a common inbred line were subjected to a tiller induction treatment comprising drenching the soil surrounding the roots with 100 mL of a 2.5% PBZ solution (v/v; 0.4% of active ingredient) approximately one week after germination and then allowed to grow to sexual maturity in 10-inch pots a greenhouse. A control group of plants were grown under identical circumstances except that they were not subjected to the tiller induction treatment.
Three treatment groups were then formed from the tillers: tillers of the “Co-hab” treatment were allowed to continue growing in the same pot with the mother plant; those of the “-Mother” treatment also remained in the same pot, but the mother plant was removed from the pot; and those of the “Transplanted” treatment group were transplanted from the pot containing the mother plant into separate 10-inch pots, one plant per pot. Any naturally-occurring tillers produced by the control group were allowed to grow in the same pot as the mother plant, similar to the co-hab treatment. All plants were allowed to grow to sexual maturity and self-pollinated when silks and tassels formed. When seed set was complete, the average total number of seeds produced by all plants deriving from the same mother plant seed were counted and plotted in FIG. 3.

DH0 plants = assay: Ears classified by number of DH1 seed produced, first 3 co-dominant ears (Example 4); type: in vivo, maize; design: key: Class A ears produced approximately 50 seeds; Class B ears produced approximately 20-49 seeds; Class C ears produced approximately 1-20 seeds; Class 0 ears produced zero seeds; “—” represents a situation where a third ear was not formed by the plant
From the text: When the DH1 ears were harvested in the experiment described in Example 3, four DH0 plants selected randomly from each germplasm were subjected to further scrutiny comprising recording of the approximate number of seeds produced from the first 3 co-dominant ears for each plant. […] In Table 4, ears are assigned to one of 4 categories, depending on the approximate number of seeds they produced: Class A ears produced approximately 50 seeds, Class B ears produced approximately 20-49 seeds, Class C ears produced approximately 1-20 seeds, and Class 0 ears produced zero seeds.

haploid mother plant = assay: Tiller induction with doubled haploid mother plant (Example 7); type: in vivo, maize
Experimental: A haploid mother plant will be subjected to doubling treatment and thereafter planted in a pot, the soil surrounding the roots drenched with 100 mL of 2.5% of paclobutrazol, and then tended standard maize green house growing conditions for several days. […] One of the resulting daughter tiller plants can be separated from the mother plant, transplanted into a separate pot, and grown via standard green house management procedures to eventually recover a daughter plant with normal haploid morphology.

[3] = Ear1 (primary ear only), 60 mL 2.5% PBZ 29 days after colchicine doubling
[4] = Ear2 (primary and secondary ear), 60 mL 2.5% PBZ after colchicine doubling
[5] = Ear3 (primary, secondary and tertiary ear), 60 mL 2.5% PBZ after colchicine doubling
[6] = EarAll (all ears), 60 mL 2.5% PBZ after colchicine doubling
[7] = 100 mL 2.5% PBZ soil drench approx. one week after germination

`CC(C)(C)[C@H](O)[C@H](Cc1ccc(Cl)cc1)n1cncn1` (relative stereo) [PBZ, (2S,3S)-1-(4-chlorophenyl)-4,4-dimethyl-2-(1,2,4-triazol-1-yl) pentan-3-ol] was tested, and the DE04 [1, 3] was 71%, the DE20 [1, 3] was 37% and the DE30 [1, 3] was 26%. For the same molecule, the DE50 [1, 3] was 23%, the DE04 [1, 4] was 76% and the DE20 [1, 4] was 59%. It also gave a DE30 [1, 4] of 47%, a DE50 [1, 4] of 36% and a DE04 [1, 5] of 76%. It also gave a DE20 [1, 5] of 65%, a DE30 [1, 5] of 58% and a DE50 [1, 5] of 50%. It also gave a DE04 [1, 6] of 76%, a DE20 [1, 6] of 68% and a DE30 [1, 6] of 58%. The DE50 [1, 6] was 52%, the “morphology of mother plants” value [2, 7] was “shortened internodes” and the “tiller production by mother plants” value [2, 7] was “induced the mother plants to produce tillers”. The “average total seeds per plant vs control group” value ([2]; Transplanted treatment group (tillers transplanted to separate pots)) was “more than twice the number of seeds as the control group”, the “Ears classified by the number of DH1 seed they produced” value (from here on “Ears classified by the number”) (DH0 plants; A, Plant 1, 1st ear) was “C (Class C ears produced approximately 1-20 seeds)” and the “Ears classified by the number” value (DH0 plants; A, Plant 1, 2nd ear) was “B (Class B ears produced approximately 20-49 seeds)”. For the same molecule, the “Ears classified by the number” value (DH0 plants; A, Plant 1, 3rd ear) was “C (Class C ears produced approximately 1-20 seeds)”, the “Ears classified by the number” value (DH0 plants; A, Plant 2, 1st ear) was “C (Class C ears produced approximately 1-20 seeds)” and the “Ears classified by the number” value (DH0 plants; A, Plant 2, 2nd ear) was “A (Class A ears produced approximately 50 seeds)”. The “Ears classified by the number” value (DH0 plants; A, Plant 2, 3rd ear) was “C (Class C ears produced approximately 1-20 seeds)”, the “Ears classified by the number” value (DH0 plants; A, Plant 3, 1st ear) was “C (Class C ears produced approximately 1-20 seeds)” and the “Ears classified by the number” value (DH0 plants; A, Plant 3, 2nd ear) was “C (Class C ears produced approximately 1-20 seeds)”. For the same molecule, the “Ears classified by the number” value (DH0 plants; A, Plant 3, 3rd ear) was “B (Class B ears produced approximately 20-49 seeds)”, the “Ears classified by the number” value (DH0 plants; A, Plant 4, 1st ear) was “A (Class A ears produced approximately 50 seeds)” and the “Ears classified by the number” value (DH0 plants; A, Plant 4, 2nd ear) was “C (Class C ears produced approximately 1-20 seeds)”. For the same molecule, the “Ears classified by the number” value (DH0 plants; A, Plant 4, 3rd ear) was 0 (Class 0 ears produced zero seeds), the “Ears classified by the number” value (DH0 plants; B, Plant 1, 1st ear) was “C (Class C ears produced approximately 1-20 seeds)” and the “Ears classified by the number” value (DH0 plants; B, Plant 1, 2nd ear) was “A (Class A ears produced approximately 50 seeds)”. For the same molecule, the “Ears classified by the number” value (DH0 plants; B, Plant 1, 3rd ear) was “—”, the “Ears classified by the number” value (DH0 plants; B, Plant 2, 1st ear) was “B (Class B ears produced approximately 20-49 seeds)” and the “Ears classified by the number” value (DH0 plants; B, Plant 2, 2nd ear) was “C (Class C ears produced approximately 1-20 seeds)”. The “Ears classified by the number” value (DH0 plants; B, Plant 2, 3rd ear) was “C (Class C ears produced approximately 1-20 seeds)”, the “Ears classified by the number” value (DH0 plants; B, Plant 3, 1st ear) was “C (Class C ears produced approximately 1-20 seeds)” and the “Ears classified by the number” value (DH0 plants; B, Plant 3, 2nd ear) was “A (Class A ears produced approximately 50 seeds)”. For the same molecule, the “Ears classified by the number” value (DH0 plants; B, Plant 3, 3rd ear) was “C (Class C ears produced approximately 1-20 seeds)”, the “Ears classified by the number” value (DH0 plants; B, Plant 4, 1st ear) was “C (Class C ears produced approximately 1-20 seeds)” and the “Ears classified by the number” value (DH0 plants; B, Plant 4, 2nd ear) was “A (Class A ears produced approximately 50 seeds)”. The “Ears classified by the number” value (DH0 plants; B, Plant 4, 3rd ear) was “C (Class C ears produced approximately 1-20 seeds)”, the “Ears classified by the number” value (DH0 plants; Control A, Plant 1, 1st ear) was “B (Class B ears produced approximately 20-49 seeds)” and the “Ears classified by the number” value (DH0 plants; Control A, Plant 1, 2nd ear) was “A (Class A ears produced approximately 50 seeds)”. For the same molecule, the “Ears classified by the number” value (DH0 plants; Control A, Plant 1, 3rd ear) was “—”, the “Ears classified by the number” value (DH0 plants; Control A, Plant 2, 1st ear) was “C (Class C ears produced approximately 1-20 seeds)” and the “Ears classified by the number” value (DH0 plants; Control A, Plant 2, 2nd ear) was “B (Class B ears produced approximately 20-49 seeds)”. For the same molecule, the “Ears classified by the number” value (DH0 plants; Control A, Plant 2, 3rd ear) was “C (Class C ears produced approximately 1-20 seeds)”, the “Ears classified by the number” value (DH0 plants; Control A, Plant 3, 1st ear) was “A (Class A ears produced approximately 50 seeds)” and the “Ears classified by the number” value (DH0 plants; Control A, Plant 3, 2nd ear) was “C (Class C ears produced approximately 1-20 seeds)”. For the same molecule, the “Ears classified by the number” value (DH0 plants; Control A, Plant 3, 3rd ear) was 0 (Class 0 ears produced zero seeds), the “Ears classified by the number” value (DH0 plants; Control A, Plant 4, 1st ear) was “B (Class B ears produced approximately 20-49 seeds)” and the “Ears classified by the number” value (DH0 plants; Control A, Plant 4, 2nd ear) was “B (Class B ears produced approximately 20-49 seeds)”. The “Ears classified by the number” value (DH0 plants; Control A, Plant 4, 3rd ear) was 0 (Class 0 ears produced zero seeds), the “Ears classified by the number” value (DH0 plants; Control B, Plant 1, 1st ear) was “C (Class C ears produced approximately 1-20 seeds)” and the “Ears classified by the number” value (DH0 plants; Control B, Plant 1, 2nd ear) was “C (Class C ears produced approximately 1-20 seeds)”. The “Ears classified by the number” value (DH0 plants; Control B, Plant 1, 3rd ear) was “B (Class B ears produced approximately 20-49 seeds)”, the “Ears classified by the number” value (DH0 plants; Control B, Plant 2, 1st ear) was “A (Class A ears produced approximately 50 seeds)” and the “Ears classified by the number” value (DH0 plants; Control B, Plant 2, 2nd ear) was “A (Class A ears produced approximately 50 seeds)”. For the same molecule, the “Ears classified by the number” value (DH0 plants; Control B, Plant 2, 3rd ear) was 0 (Class 0 ears produced zero seeds), the “Ears classified by the number” value (DH0 plants; Control B, Plant 3, 1st ear) was “A (Class A ears produced approximately 50 seeds)” and the “Ears classified by the number” value (DH0 plants; Control B, Plant 3, 2nd ear) was 0 (Class 0 ears produced zero seeds). The “Ears classified by the number” value (DH0 plants; Control B, Plant 3, 3rd ear) was “C (Class C ears produced approximately 1-20 seeds)”, the “Ears classified by the number” value (DH0 plants; Control B, Plant 4, 1st ear) was “B (Class B ears produced approximately 20-49 seeds)” and the “Ears classified by the number” value (DH0 plants; Control B, Plant 4, 2nd ear) was “B (Class B ears produced approximately 20-49 seeds)”. The “Ears classified by the number” value (DH0 plants; Control B, Plant 4, 3rd ear) was “C (Class C ears produced approximately 1-20 seeds)”, the “DH1 seeds yielded by daughter tiller plant when selfed” value (haploid mother plant; daughter tiller separated and transplanted) was “several dozen DH1 seeds” and the “morphology and tiller production of mother plant” value (haploid mother plant; haploid mother plant after doubling treatment, 100 mL of 2.5% paclobutrazol soil drench) was “shortened internodes and increased tiller production”.
